Tests used:
HLA-A*0201 = biological target: T1, HLA-A*0201 (Homo sapiens, UniProt P04439, D140Y/D185E/D98H/E176V/E277Q/G131W/G231S/I119V/I121R/I166T/I218V/L300P/L318F/N151K/N90K/P208A/P217A/Q86G/Q94H/R138H/R169H/T345S); assay: T2 cell-stabilization assay (T2-binding); conditions: for T2-binding Ratio of MFI: T2 cells 5×10^5, peptide 50 µg/mL + β2-microglobulin 5 µg/mL, 28°C 16–18 h, then brefeldin A 10 µg/mL 37°C 3 h, FITC anti-HLA-A2, flow cytometry, MFI relative to negative control HCV C55-74 (set as 1); for binding affinity, MFI higher than the baseline: baseline = negative control HCV C55-74, called modest binding affinity
T1 construct: Human T2 cells (purchased from the American Type Culture Collection, ATCC) (ATCC No. CRL-1992) expressing the HLA-A*0201 gene; endogenous in cells; host or cells: human T2 cells (ATCC CRL-1992)
Method: T2 cells (5×10^5) cultured in 96-well U-bottom plates were incubated with the individual 9-mer synthetic peptides (50 µg/mL) and β2-microglobulin (5 µg/mL; Sigma-Aldrich) at 28°C for 16–18 hours. Subsequently, brefeldin A (10 µg/mL) was added and the cells were incubated at 37°C for another 3 hours, then washed and stained with fluorescence isothiocyanate (FITC)-conjugated mouse anti-human HLA-A2 antibody (SeroTec). Peptide-loaded T2 cells were acquired and analyzed on the FACScan flow cytometer using CellQuest software (Becton Dickinson). GLC-9 peptide was used as positive control (PC). The mean fluorescence intensity (MFI) represents the binding affinity of each peptide compared to MFI (set as MFI = 1) obtained from negative control (NC), which is T2 cells loaded with HCV peptide C55-74.
Twenty-five 9-mer synthetic peptides derived from the RSV F glycoprotein sequence presumed to encompass HLA-A*0201 binding motifs were synthesized (Table 1). Each was tested for its ability to bind HLA-A*0201 molecules by T2 cell-based binding assay (data not shown). The relative mean fluorescence intensity (MFI) obtained from the positive control (PC) peptide derived from Epstein-Barr virus capsid protein (GLC-9, a previously defined HLA-A*0201-restricted CTL epitope) was twofold (MFI = 1.96) compared to the baseline MFI = 1 obtained from the negative control (NC) treated with an unrelated peptide HCV C55-74 (a C57BL/6-specific CD4 epitope). […] The remaining peptides had no detectable binding to the HLA-A*0201 molecules. Apparently, the different MFIs generated by binding of RSV F-derived peptides to HLA-A*0201 reflects on the binding specificity of different peptides to a given HLA molecule.

[1] = test system: splenocytes from HLA-A*0201 transgenic C57BL/6 mice; assay: IFN-γ ELISPOT of splenocytes restimulated with peptide; format: cell-based, mouse; conditions: for IFN-γ ELISPOT, RSV: splenocytes of HLA-Tg B6 mice primed and boosted i.n. with 10^4 pfu RSV-B1; for IFN-γ ELISPOT, RSV / IFN-γ ELISPOT, rAd-F0: restimulated with 2 µg peptide, representative of two experiments, five mice per group; for IFN-γ ELISPOT, rAd-F0: splenocytes of HLA-Tg B6 mice primed and boosted i.n. with 10^7 pfu rAd-F0; for IFN-γ level in restimulated splenocytes (ELISPOT, text grading): splenocytes of rAd-F0- or RSV B1-primed and boosted HLA-Tg B6 mice, high = over 100 spots, moderate = over 50 spots
Method: (§1) To screen the immunodominance of epitopic peptide in the induction of RSV-F specific Th1/Th2 expression, HLA-A*0201 transgenic C57BL/6 mice were anesthetized with isoflurane and immunized with 1×10^7 pfu/50 µL of rAd-F0 or rAd-LacZ or 1×10^4 live RSV B1 via the intranasal (i.n.) route. Twenty days later, the mice were given booster immunization i.n. with the same dose. After 10 days of boost, mice were sacrificed and splenocytes were isolated for the cytokine ELISPOT assay. For peptide-based vaccination, transgenic mice were immunized subcutaneously (s.c.) with 50 µg of the individual synthetic peptides emulsified in 25 µL of incomplete Freund's adjuvant (IFA) (Sigma-Aldrich) and then boosted after 10 days s.c. with the same dose of the respective peptides mixed with IFA. Mice were sacrificed 7 days after the booster and splenocytes were isolated for in vitro peptide-restimulation. For challenge studies, 10^7 pfu of live RSV-B1 was administered i.n. seven days after the booster immunization with peptide vaccines. Mice were sacrificed on day 4 post-challenge and the lung tissues were collected and subjected to further analysis by flow cytometry, ELISA, CTL assay and immunohistochemistry. Mice body weight was monitored daily.
(§2) […] RBC-free splenocyte suspensions prepared from the individual mice were seeded in individual wells of 96-well filtration plates (Millipore) precoated with capturing monoclonal antibodies for murine IL-2, IL-4 or IFN-γ (0.5 µg/ well) (eBioscience) and blocked with conditioned medium (CM) for 1 hour at room temperature. The splenocytes were added with the individual RSV F 9-mer synthetic peptides (2 µg each) or GLC-9 dissolved in CM (100 µL). The splenocytes added with Con A (10 µg/mL) were used as positive control. Unstimulated splenocytes were used as negative control. The plates were kept in a 37°C incubator equilibrated with 5% CO2 for 48 hours. The individual wells of the ELISPOT plates were washed three times with washing buffer (0.05% tween20 in PBS, PBS-T), and then 0.2 µg of the corresponding biotinylated detection monoclonal antibodies specific for IL-2, IL-4 and IFN-γ were added to detect the respective cytokines. After 2 hours of incubation at room temperature, the plates were washed and 100 µl of streptavidin-alkaline phosphatase (1∶ 250 dilution) was added to the individual wells, and the plates were incubated at room temperature for 45 minutes. Finally, the plates were washed four times with the wash buffer, and 100 µl of AEC (3-amine-9-ethylcarbazole, Sigma-Aldrich) substrate was added to each well and allowed to react for 30 minutes at room temperature in the dark. The plates were then washed with water, air-dried overnight, and the spots per well were scored using the immunospot counting reader (C.T.L. IMMUNOSPOT, CELLULAR TECHNOLOGY LTD). Results were expressed as the number of cytokine-secreting cells per 5×10^5 splenocytes seeded in the initial culture.
(§3) Figure 1 Induction of IFN-γ and IL-2 in splenocytes from RSV F peptide immunized HLA-A*0201 transgenic mice upon secondary recall. Splenocytes harvested on day 30 from HLA-A-Tg B6 mice primed and boosted at 20 days interval intranasally with 10^7 pfu of rAd-F0 (□) or 10^4 pfu of RSV-B1 (▪)were restimulated with 2 µg of the individual RSV F peptide or 10 µg/ml Con A for 5 days in the presence of murine IL-2 . After stimulation, 5×10^5 splenocytes were seeded to anti-IFN-γ (A) or anti-IL-2 (B) capture antibody coated ELISPOT plates for 2 days for ELISPOT assay as described in Materials and Methods. Cytokine-positive immunospots were developed and the results are expressed as the number of immunospots +/−2 standard deviations for each experimental group. Data is representative of results derived from two independent experiments, each with five mice per group.

[2] = test system: splenocytes from HLA-A*0201 transgenic C57BL/6 mice; assay: IL-2 ELISPOT of splenocytes restimulated with peptide; format: cell-based, mouse; conditions: for IL-2 ELISPOT, RSV: splenocytes of HLA-Tg B6 mice primed and boosted i.n. with 10^4 pfu RSV-B1; for IL-2 ELISPOT, RSV / IL-2 ELISPOT, rAd-F0: restimulated with 2 µg peptide, representative of two experiments, five mice per group; for IL-2 ELISPOT, rAd-F0: splenocytes of HLA-Tg B6 mice primed and boosted i.n. with 10^7 pfu rAd-F0; for IL-2 level in restimulated splenocytes (ELISPOT, text grading): splenocytes of rAd-F0- or RSV B1-primed and boosted HLA-Tg B6 mice, high = over 100 spots, moderate = over 50 spots
Method: as §1, §2, §3

Substance	T2-binding Ratio of MFI (HLA-A*0201)	IFN-γ ELISPOT, RSV [1]	IFN-γ ELISPOT, rAd-F0 [1]	IFN-γ level in restimulated splenocytes (ELISPOT, text grading) [1]	IL-2 ELISPOT, RSV [2]	IL-2 ELISPOT, rAd-F0 [2]	IL-2 level in restimulated splenocytes (ELISPOT, text grading) [2]	binding affinity, MFI higher than the baseline (HLA-A*0201; T2 cell-based binding assay) [%]	binding to the HLA-A*0201 molecules (in words) (HLA-A*0201; T2 cell-based binding assay)	T2-binding Ratio of MFI (HLA-A*0201; listed as N)
4: HLA-A*0201-restricted 9-mer synthetic peptide from F protein of RSV-B1 strain (ELDKYKNAV) [compound 4]	0.94	34.5 cytokine-secreting cells per 5×10^5 splenocytes	88.5 cytokine-secreting cells per 5×10^5 splenocytes	over 50 spots	51.5 cytokine-secreting cells per 5×10^5 splenocytes	49.5 cytokine-secreting cells per 5×10^5 splenocytes	over 50 spots	–	–	–
5: HLA-A*0201-restricted 9-mer synthetic peptide from F protein of RSV-B1 strain (FMNYTLNNT) [compound 5]	0.96	12.5 cytokine-secreting cells per 5×10^5 splenocytes	73 cytokine-secreting cells per 5×10^5 splenocytes	over 50 spots	58.5 cytokine-secreting cells per 5×10^5 splenocytes	38 cytokine-secreting cells per 5×10^5 splenocytes	over 50 spots	–	–	–
6: HLA-A*0201-restricted 9-mer synthetic peptide from F protein of RSV-B1 strain (FLLGVGSAI) [compound 6]	1.14	61.5 cytokine-secreting cells per 5×10^5 splenocytes	65 cytokine-secreting cells per 5×10^5 splenocytes	over 50 spots	32 cytokine-secreting cells per 5×10^5 splenocytes	29 cytokine-secreting cells per 5×10^5 splenocytes	–	~10	–	–
7: HLA-A*0201-restricted 9-mer synthetic peptide from F protein of RSV-B1 strain (HLEGEVNKI) [compound 7]	0.83	81 cytokine-secreting cells per 5×10^5 splenocytes	68.5 cytokine-secreting cells per 5×10^5 splenocytes	over 50 spots	33 cytokine-secreting cells per 5×10^5 splenocytes	68 cytokine-secreting cells per 5×10^5 splenocytes	over 50 spots	–	–	–
8: HLA-A*0201-restricted 9-mer synthetic peptide from F protein of RSV-B1 strain (ALLSTNKAV) [compound 8]	1.50	86 cytokine-secreting cells per 5×10^5 splenocytes	36 cytokine-secreting cells per 5×10^5 splenocytes	over 50 spots	43 cytokine-secreting cells per 5×10^5 splenocytes	8.5 cytokine-secreting cells per 5×10^5 splenocytes	–	~10	–	–
9: HLA-A*0201-restricted 9-mer synthetic peptide from F protein of RSV-B1 strain (LLSTNKAVV) [compound 9]	1.53	1 cytokine-secreting cells per 5×10^5 splenocytes	27.5 cytokine-secreting cells per 5×10^5 splenocytes	–	2 cytokine-secreting cells per 5×10^5 splenocytes	5 cytokine-secreting cells per 5×10^5 splenocytes	–	–	–	–
10: HLA-A*0201-restricted 9-mer synthetic peptide from F protein of RSV-B1 strain (STNKAVVSL) [compound 10]	0.91	9.5 cytokine-secreting cells per 5×10^5 splenocytes	43 cytokine-secreting cells per 5×10^5 splenocytes	–	39.5 cytokine-secreting cells per 5×10^5 splenocytes	0 cytokine-secreting cells per 5×10^5 splenocytes	–	–	–	–
11: HLA-A*0201-restricted 9-mer synthetic peptide from F protein of RSV-B1 strain (SLSNGVSVL) [compound 11]	1.06	200 cytokine-secreting cells per 5×10^5 splenocytes	68.5 cytokine-secreting cells per 5×10^5 splenocytes	over 100 spots	56.5 cytokine-secreting cells per 5×10^5 splenocytes	51.5 cytokine-secreting cells per 5×10^5 splenocytes	over 50 spots	–	–	–
12: HLA-A*0201-restricted 9-mer synthetic peptide from F protein of RSV-B1 strain (VLTSKVLDL) [compound 12]	0.99	116.5 cytokine-secreting cells per 5×10^5 splenocytes	95.5 cytokine-secreting cells per 5×10^5 splenocytes	over 100 spots	36 cytokine-secreting cells per 5×10^5 splenocytes	44 cytokine-secreting cells per 5×10^5 splenocytes	–	–	–	–
RPQPRGRRQPIPKARQPEGR [HCV C55-74, reference compound]	1	–	–	–	–	–	–	–	no binding	1.00
